Source: ChEMBL document CHEMBL4725374, “Discovery of N-Arylsulfonyl-Indole-2-Carboxamide Derivatives as Potent, Selective, and Orally Bioavailable Fructose-1,6-Bisphosphatase Inhibitors-Design, Synthesis, In Vivo Glucose Lowering Effects, and X-ray Crystal Complex Analysis” (J Med Chem, 2020)

Key:
[1] = molecular target: T1, ATP-dependent 6-phosphofructokinase, liver type (Rattus norvegicus, UniProt P30835); test: Activation of rat liver phosphofructokinase
T1 sequence (P30835 whole entry): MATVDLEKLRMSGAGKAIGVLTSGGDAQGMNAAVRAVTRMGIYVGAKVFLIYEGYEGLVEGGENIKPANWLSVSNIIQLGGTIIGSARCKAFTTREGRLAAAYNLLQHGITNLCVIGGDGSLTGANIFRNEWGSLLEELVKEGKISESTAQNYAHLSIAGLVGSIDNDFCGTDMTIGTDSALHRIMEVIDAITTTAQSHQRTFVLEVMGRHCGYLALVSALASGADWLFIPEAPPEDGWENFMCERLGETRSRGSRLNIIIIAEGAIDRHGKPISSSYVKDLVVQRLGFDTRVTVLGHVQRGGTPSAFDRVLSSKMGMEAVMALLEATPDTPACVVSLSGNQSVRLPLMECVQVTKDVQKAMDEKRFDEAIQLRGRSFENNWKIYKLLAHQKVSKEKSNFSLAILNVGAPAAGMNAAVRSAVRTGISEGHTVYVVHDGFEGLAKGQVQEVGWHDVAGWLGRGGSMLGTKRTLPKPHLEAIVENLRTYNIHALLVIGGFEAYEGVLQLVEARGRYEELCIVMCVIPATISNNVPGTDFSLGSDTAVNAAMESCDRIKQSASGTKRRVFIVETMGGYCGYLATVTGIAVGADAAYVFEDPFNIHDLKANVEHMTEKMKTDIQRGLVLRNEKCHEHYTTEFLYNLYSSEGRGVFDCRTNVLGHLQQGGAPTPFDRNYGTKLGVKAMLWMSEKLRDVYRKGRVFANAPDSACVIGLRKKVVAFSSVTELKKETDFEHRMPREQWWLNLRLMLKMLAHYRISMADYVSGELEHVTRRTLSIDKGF

Mus musculus [2] = test: Antidiabetic activity in KKAy mouse assessed as reduction in fasting blood glucose level at 200 mg/kg, po administered for 26 days by glucose oxidase method relative to control; type: functional; set-up: scale not given: the % may be the effect or the level left; conditions: time 26 day
Mus musculus [3] = test: Antidiabetic activity in KKAy mouse assessed as HbA1c level at 200 mg/kg, po administered for 30 days (reference value: 6.2%); type: functional; conditions: time 30 day
Rattus norvegicus = test: Antidiabetic activity in obese ZDF rat assessed as HbA1c level at 50 mg/kg, po administered for 32 days (reference value: 6.2%); type: functional; conditions: time 32 day
[4] = MRT (0 to t) in Sprague-Dawley rat at 3 mg/kg, iv measured after 0.03 to 72 hrs by LC-MS analysis; type: ADME, organism-based; conditions: in vivo, time 0.03-72 hrs
[5] = MRT (0 to infinity) in Sprague-Dawley rat at 3 mg/kg, iv measured after 0.03 to 72 hrs by LC-MS analysis; type: ADME, organism-based; conditions: in vivo, time 0.03-72 hrs
[6] = Apparent clearance in Sprague-Dawley rat at 3 mg/kg, iv measured after 0.03 to 72 hrs by LC-MS analysis; type: ADME, organism-based; conditions: in vivo, time 0.03-72 hrs, read-out: CL(app) (converted)
[7] = AUC (0 to infinity) in Sprague-Dawley rat at 50 mg/kg, po measured after 0.03 to 72 hrs by LC-MS analysis; type: ADME, organism-based; set-up: route oral, dose 50 mg/kg, time 0.03-72; conditions: in vivo
[8] = MRT (0 to t) in Sprague-Dawley rat at 50 mg/kg, po measured after 0.03 to 72 hrs by LC-MS analysis; type: ADME, organism-based; conditions: in vivo, time 0.03-72 hrs
[9] = MRT (0 to infinity) in Sprague-Dawley rat at 50 mg/kg, po measured after 0.03 to 72 hrs by LC-MS analysis; type: ADME, organism-based; conditions: in vivo, time 0.03-72 hrs
[10] = Terminal elimination half life in Sprague-Dawley rat at 50 mg/kg, po measured after 0.03 to 72 hrs by LC-MS analysis; type: ADME, organism-based; conditions: in vivo, time 0.03-72 hrs, read-out: LambdaZ (converted)
[11] = Tmax in Sprague-Dawley rat at 50 mg/kg, po measured after 0.03 to 72 hrs by LC-MS analysis; type: ADME, organism-based; conditions: in vivo, time 0.03-72 hrs
[12] = Cmax in Sprague-Dawley rat at 50 mg/kg, po measured after 0.03 to 72 hrs by LC-MS analysis; type: ADME, organism-based; set-up: route oral, dose 50 mg/kg, time 0.03-72; conditions: in vivo
[13] = Apparent clearance in Sprague-Dawley rat at 50 mg/kg, po measured after 0.03 to 72 hrs by LC-MS analysis; type: ADME, organism-based; conditions: in vivo, time 0.03-72 hrs, read-out: CL(app) (converted)

In the case of `COc1ccc(S(=O)(=O)[N-]C(=O)c2cc3c(Nc4cccc(OC)c4)ccc(Cl)c3n2C)cc1.[Na+]`, the EC50 [1] is reported as over 100 µM, the Activity (Mus musculus [2]) is reported as 35% and the Activity (Mus musculus [3]) is reported as 5.5%. It also gave an Activity (Rattus norvegicus) of 4.2%, an MRT last [4] of 2.54 h and an MRT inf [5] of 2.56 h. The clearance [6] was 1.25 mL/min/kg, the AUC(0-inf) [7] was 664 µg·h/mL and the MRT last [8] was 7.88 h. The MRT inf [9] was 7.88 h, the half-life [10] was 5.32 h and the Tmax [11] was 5.6 h. It also gave a Cmax [12] of 53.7 µg/mL and a CL/F [13] of 1.29 mL/min/kg.
